Results published in ChEMBL document CHEMBL1140645, “Synthesis and in vitro activity of 2-thiazolylhydrazone derivatives compared with the activity of clotrimazole against clinical isolates of Candida spp” (Bioorg Med Chem Lett, 2007).
Values after ≈ are worked out from the molar mass of the structure shown.

Legend:
Nakaseomyces glabratus = test: Antifungal activity against Candida glabrata after 24 hrs by broth microdilution method; format: functional
Candida tropicalis = test: Antifungal activity against Candida tropicalis after 24 hrs by broth microdilution method; format: functional
Pichia kudriavzevii = test: Antifungal activity against Candida krusei after 24 hrs by broth microdilution method; format: functional
Candida albicans = test: Antifungal activity against Candida albicans after 24 hrs by broth microdilution method; format: functional
Candida parapsilosis = test: Antifungal activity against Candida parapsilosis after 24 hrs by broth microdilution method; format: functional; conditions: Lodderomyces parapsilosis
[Candida] sake = Antifungal activity against Candida sake after 24 hrs by broth microdilution method; format: functional; conditions: Fermentozyma sake
[1] = Cytotoxicity against human EAhy926 cells assessed as cell survival fraction at 50 ug/ml after 24 hrs by trypan blue exclusion test; conditions: ea.hy 926, at 50 µg/mL
[2] = Cytotoxicity against human EAhy926 cells assessed as cell survival fraction at 0.05 ug/ml after 24 hrs by trypan blue exclusion test; conditions: ea.hy 926, at 0.05 µg/mL
[3] = Cytotoxicity against human EAhy926 cells assessed as cell survival fraction at 5 ug/ml after 24 hrs by trypan blue exclusion test; conditions: ea.hy 926, at 5 µg/mL
[4] = Cytotoxicity against human EAhy926 cells assessed as cell survival fraction at 0.5 ug/ml after 24 hrs by trypan blue exclusion test; conditions: ea.hy 926, at 0.5 µg/mL

O=[N+]([O-])c1cccc(-c2csc(NN=C3CCCC3)n2)c1
MIC (Nakaseomyces glabratus): 0.5 µg/mL (≈ 1.65 µM) | MIC (Candida tropicalis): 64 µg/mL (≈ 212 µM) | MIC (Pichia kudriavzevii): > 128 µg/mL | MIC (Candida albicans): 1 µg/mL (≈ 3.31 µM) | MIC (Candida parapsilosis): > 128 µg/mL | MIC ([Candida] sake): 16 µg/mL (≈ 52.9 µM)

COc1ccc(-c2csc(N/N=C3\CCCC(C)C3)n2)cc1 (stereo unspecified)
MIC (Nakaseomyces glabratus): > 128 µg/mL | viability at 24 h, 50 ug/ml [1]: 54.5% | viability at 24 h, 0.05 ug/ml [2]: 83.3% | viability at 24 h, 5 ug/ml [3]: 72.7% | MIC (Candida tropicalis): 2 µg/mL (≈ 6.34 µM) | MIC (Pichia kudriavzevii): 2 µg/mL (≈ 6.34 µM) | MIC (Candida albicans): 0.5 µg/mL (≈ 1.59 µM) | MIC (Candida parapsilosis): 1 µg/mL (≈ 3.17 µM) | MIC ([Candida] sake): 8 µg/mL (≈ 25.4 µM) | viability at 24 h, 0.5 ug/ml [4]: 80%

Clc1ccc(-c2csc(NN=C3CCCC3)n2)cc1
MIC (Nakaseomyces glabratus): 0.5 µg/mL (≈ 1.71 µM) | viability at 24 h, 50 ug/ml [1]: 64.9% | viability at 24 h, 0.05 ug/ml [2]: 86% | viability at 24 h, 5 ug/ml [3]: 81% | MIC (Candida tropicalis): 32 µg/mL (≈ 110 µM) | MIC (Pichia kudriavzevii): 64 µg/mL (≈ 219 µM) | MIC (Candida albicans): 0.25 µg/mL (≈ 0.857 µM) | MIC (Candida parapsilosis): 8 µg/mL (≈ 27.4 µM) | MIC ([Candida] sake): 16 µg/mL (≈ 54.8 µM) | viability at 24 h, 0.5 ug/ml [4]: 89.2%

CC1CCCC/C1=N\Nc1nc(-c2ccc(-c3ccccc3)cc2)cs1 (stereo unspecified)
MIC (Nakaseomyces glabratus): 64 µg/mL (≈ 177 µM) | MIC (Candida tropicalis): 64 µg/mL (≈ 177 µM) | MIC (Pichia kudriavzevii): 16 µg/mL (≈ 44.3 µM) | MIC (Candida albicans): 32 µg/mL (≈ 88.5 µM) | MIC (Candida parapsilosis): 16 µg/mL (≈ 44.3 µM) | MIC ([Candida] sake): 16 µg/mL (≈ 44.3 µM)

O=[N+]([O-])c1ccc(-c2csc(NN=C3CCCC3)n2)cc1
MIC (Nakaseomyces glabratus): 0.5 µg/mL (≈ 1.65 µM) | MIC (Candida tropicalis): 64 µg/mL (≈ 212 µM) | MIC (Pichia kudriavzevii): 32 µg/mL (≈ 106 µM) | MIC (Candida albicans): 8 µg/mL (≈ 26.5 µM) | MIC (Candida parapsilosis): > 128 µg/mL | MIC ([Candida] sake): 16 µg/mL (≈ 52.9 µM)

CC1CCCC/C1=N\Nc1nc(-c2cccc([N+](=O)[O-])c2)cs1 (stereo unspecified)
MIC (Nakaseomyces glabratus): 16 µg/mL (≈ 48.4 µM) | viability at 24 h, 50 ug/ml [1]: 83.3% | viability at 24 h, 0.05 ug/ml [2]: 88.8% | viability at 24 h, 5 ug/ml [3]: 85.7% | MIC (Candida tropicalis): 64 µg/mL (≈ 194 µM) | MIC (Pichia kudriavzevii): > 128 µg/mL | MIC (Candida albicans): 0.5 µg/mL (≈ 1.51 µM) | MIC (Candida parapsilosis): 8 µg/mL (≈ 24.2 µM) | MIC ([Candida] sake): 16 µg/mL (≈ 48.4 µM) | viability at 24 h, 0.5 ug/ml [4]: 86%

N#Cc1ccc(-c2csc(NN=C3CCCC3)n2)cc1
MIC (Nakaseomyces glabratus): 0.5 µg/mL (≈ 1.77 µM) | viability at 24 h, 50 ug/ml [1]: 76% | viability at 24 h, 0.05 ug/ml [2]: 88.9% | viability at 24 h, 5 ug/ml [3]: 81% | MIC (Candida tropicalis): 32 µg/mL (≈ 113 µM) | MIC (Pichia kudriavzevii): 32 µg/mL (≈ 113 µM) | MIC (Candida albicans): 2 µg/mL (≈ 7.08 µM) | MIC (Candida parapsilosis): 128 µg/mL (≈ 453 µM) | MIC ([Candida] sake): 32 µg/mL (≈ 113 µM) | viability at 24 h, 0.5 ug/ml [4]: 84.7%

Cc1ccc(-c2csc(N/N=C3\CCCC(C)C3)n2)cc1 (stereo unspecified)
MIC (Nakaseomyces glabratus): 32 µg/mL (≈ 107 µM) | viability at 24 h, 50 ug/ml [1]: 38.5% | viability at 24 h, 0.05 ug/ml [2]: 84% | viability at 24 h, 5 ug/ml [3]: 72.7% | MIC (Candida tropicalis): 0.5 µg/mL (≈ 1.67 µM) | MIC (Pichia kudriavzevii): 0.5 µg/mL (≈ 1.67 µM) | MIC (Candida albicans): 0.5 µg/mL (≈ 1.67 µM) | MIC (Candida parapsilosis): 0.5 µg/mL (≈ 1.67 µM) | MIC ([Candida] sake): 2 µg/mL (≈ 6.68 µM) | viability at 24 h, 0.5 ug/ml [4]: 83.3%

c1ccc(-c2ccc(-c3csc(NN=C4CCCC4)n3)cc2)cc1
MIC (Nakaseomyces glabratus): > 128 µg/mL | MIC (Candida tropicalis): 64 µg/mL (≈ 192 µM) | MIC (Pichia kudriavzevii): > 128 µg/mL | MIC (Candida albicans): 16 µg/mL (≈ 48 µM) | MIC (Candida parapsilosis): > 128 µg/mL | MIC ([Candida] sake): 32 µg/mL (≈ 96 µM)

CC1CCC/C(=N\Nc2nc(-c3ccc(F)cc3)cs2)C1 (stereo unspecified)
MIC (Nakaseomyces glabratus): > 128 µg/mL | viability at 24 h, 50 ug/ml [1]: 52.9% | viability at 24 h, 0.05 ug/ml [2]: 80% | viability at 24 h, 5 ug/ml [3]: 60% | MIC (Candida tropicalis): 4 µg/mL (≈ 13.2 µM) | MIC (Pichia kudriavzevii): 4 µg/mL (≈ 13.2 µM) | MIC (Candida albicans): 0.5 µg/mL (≈ 1.65 µM) | MIC (Candida parapsilosis): 1 µg/mL (≈ 3.3 µM) | MIC ([Candida] sake): 8 µg/mL (≈ 26.4 µM) | viability at 24 h, 0.5 ug/ml [4]: 76.9%

Cc1ccc(-c2csc(NN=C3CCCC3)n2)cc1
MIC (Nakaseomyces glabratus): 0.5 µg/mL (≈ 1.84 µM) | viability at 24 h, 50 ug/ml [1]: 75% | viability at 24 h, 0.05 ug/ml [2]: 85.4% | viability at 24 h, 5 ug/ml [3]: 80% | MIC (Candida tropicalis): 4 µg/mL (≈ 14.7 µM) | MIC (Pichia kudriavzevii): 64 µg/mL (≈ 236 µM) | MIC (Candida albicans): 0.25 µg/mL (≈ 0.921 µM) | MIC (Candida parapsilosis): 128 µg/mL (≈ 472 µM) | MIC ([Candida] sake): 16 µg/mL (≈ 59 µM) | viability at 24 h, 0.5 ug/ml [4]: 82%

CC1CCCC/C1=N\Nc1nc(-c2ccc(Br)cc2)cs1 (stereo unspecified)
MIC (Nakaseomyces glabratus): 2 µg/mL (≈ 5.49 µM) | MIC (Candida tropicalis): 32 µg/mL (≈ 87.8 µM) | MIC (Pichia kudriavzevii): 64 µg/mL (≈ 176 µM) | MIC (Candida albicans): 4 µg/mL (≈ 11 µM) | MIC (Candida parapsilosis): 8 µg/mL (≈ 22 µM) | MIC ([Candida] sake): 16 µg/mL (≈ 43.9 µM)

c1ccc(-c2csc(NN=C3CCCCCC3)n2)cc1
MIC (Nakaseomyces glabratus): > 128 µg/mL | viability at 24 h, 50 ug/ml [1]: 54.5% | viability at 24 h, 0.05 ug/ml [2]: 94.7% | viability at 24 h, 5 ug/ml [3]: 80% | MIC (Candida tropicalis): 8 µg/mL (≈ 28 µM) | MIC (Pichia kudriavzevii): 8 µg/mL (≈ 28 µM) | MIC (Candida albicans): 0.5 µg/mL (≈ 1.75 µM) | MIC (Candida parapsilosis): 8 µg/mL (≈ 28 µM) | MIC ([Candida] sake): 16 µg/mL (≈ 56.1 µM) | viability at 24 h, 0.5 ug/ml [4]: 87.5%

COc1ccc(-c2csc(NN=C3CCCC3)n2)cc1
MIC (Nakaseomyces glabratus): 2 µg/mL (≈ 6.96 µM) | viability at 24 h, 50 ug/ml [1]: 66% | viability at 24 h, 0.05 ug/ml [2]: 85% | viability at 24 h, 5 ug/ml [3]: 76.6% | MIC (Candida tropicalis): 64 µg/mL (≈ 223 µM) | MIC (Pichia kudriavzevii): 32 µg/mL (≈ 111 µM) | MIC (Candida albicans): 0.5 µg/mL (≈ 1.74 µM) | MIC (Candida parapsilosis): 8 µg/mL (≈ 27.8 µM) | MIC ([Candida] sake): 32 µg/mL (≈ 111 µM) | viability at 24 h, 0.5 ug/ml [4]: 82.4%

CC1CCC/C(=N\Nc2nc(-c3ccc(Cl)cc3)cs2)C1 (stereo unspecified)
MIC (Nakaseomyces glabratus): > 128 µg/mL | viability at 24 h, 50 ug/ml [1]: 28.6% | viability at 24 h, 0.05 ug/ml [2]: 73% | viability at 24 h, 5 ug/ml [3]: 50% | MIC (Candida tropicalis): 2 µg/mL (≈ 6.25 µM) | MIC (Pichia kudriavzevii): 4 µg/mL (≈ 12.5 µM) | MIC (Candida albicans): 0.5 µg/mL (≈ 1.56 µM) | MIC (Candida parapsilosis): 1 µg/mL (≈ 3.13 µM) | MIC ([Candida] sake): 2 µg/mL (≈ 6.25 µM) | viability at 24 h, 0.5 ug/ml [4]: 70%

Brc1ccc(-c2csc(NN=C3CCCC3)n2)cc1
MIC (Nakaseomyces glabratus): 2 µg/mL (≈ 5.95 µM) | MIC (Candida tropicalis): ≥ 128 µg/mL | MIC (Pichia kudriavzevii): > 128 µg/mL | MIC (Candida albicans): 2 µg/mL (≈ 5.95 µM) | MIC (Candida parapsilosis): 128 µg/mL (≈ 381 µM) | MIC ([Candida] sake): 32 µg/mL (≈ 95.2 µM)

CC1CCC/C(=N\Nc2nc(-c3ccc(C#N)cc3)cs2)C1 (stereo unspecified)
MIC (Nakaseomyces glabratus): > 128 µg/mL | viability at 24 h, 50 ug/ml [1]: 25% | viability at 24 h, 0.05 ug/ml [2]: 68.8% | viability at 24 h, 5 ug/ml [3]: 50% | MIC (Candida tropicalis): 2 µg/mL (≈ 6.44 µM) | MIC (Pichia kudriavzevii): 4 µg/mL (≈ 12.9 µM) | MIC (Candida albicans): 0.5 µg/mL (≈ 1.61 µM) | MIC (Candida parapsilosis): 0.5 µg/mL (≈ 1.61 µM) | MIC ([Candida] sake): 4 µg/mL (≈ 12.9 µM) | viability at 24 h, 0.5 ug/ml [4]: 68.7%
